Test results published in ChEMBL document CHEMBL1201862, “PubChem BioAssay data set” (2004).
Structures can show the parent of a compound that is named as a salt. The source made the active and inactive calls.

How the values were obtained:
[1] = P. falciparum Dd2 growth inhibitors, dose response, SYBR Green, dry powder samples, set 9 (AID 1159568); type: functional, cell-based
[2] = inhibitors of intracellular T. cruzi replication, confirmation, NIH3T3 host cells, beta-gal luminescence (AID 2044); type: functional, cell-based;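 further: intracellular parasites grown in NIH/3T3 mouse fibroblasts as host cells; luminescent beta-galactosidase reporter signal from transgenic T. cruzi replicating inside host cells; inhibitors lower the luminescence signal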
[3] = Vero cell cytotoxicity, dose response, cytotoxicity control for Vif-APOBEC3G degradation inhibitor project, Vero cells (AID 1117358); type: functional; details: Human immunodeficiency virus 1, Vero
[4] = cytotoxicity toward NIH3T3 fibroblasts, dose response, counter-screen, cell-based, ATP luminescence, mouse fibroblasts (AID 2010); type: functional;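 further: cells exposed to compound for about 90 hours before reading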
[5] = inhibitors of Vif binding to APOBEC3G peptide, primary screen, biochemical, TR-FRET, GST-Vif 1-94, biotin-A3G peptide, dose response retest (AID 1117319); type: functional;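 further: TR-FRET signal of purified GST-Vif binding a biotinylated A3G peptide; inhibitors lower the FRET signal by blocking Vif and A3G binding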
Large T antigen = Large T antigen (Simian virus 40, UniProt P03070); type: functional, Betapolyomavirus macacae;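 further: Confirmatory-stage PubChem screen for compounds that inhibit SV40 T antigen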
Sequence of Large T antigen (P03070 whole entry): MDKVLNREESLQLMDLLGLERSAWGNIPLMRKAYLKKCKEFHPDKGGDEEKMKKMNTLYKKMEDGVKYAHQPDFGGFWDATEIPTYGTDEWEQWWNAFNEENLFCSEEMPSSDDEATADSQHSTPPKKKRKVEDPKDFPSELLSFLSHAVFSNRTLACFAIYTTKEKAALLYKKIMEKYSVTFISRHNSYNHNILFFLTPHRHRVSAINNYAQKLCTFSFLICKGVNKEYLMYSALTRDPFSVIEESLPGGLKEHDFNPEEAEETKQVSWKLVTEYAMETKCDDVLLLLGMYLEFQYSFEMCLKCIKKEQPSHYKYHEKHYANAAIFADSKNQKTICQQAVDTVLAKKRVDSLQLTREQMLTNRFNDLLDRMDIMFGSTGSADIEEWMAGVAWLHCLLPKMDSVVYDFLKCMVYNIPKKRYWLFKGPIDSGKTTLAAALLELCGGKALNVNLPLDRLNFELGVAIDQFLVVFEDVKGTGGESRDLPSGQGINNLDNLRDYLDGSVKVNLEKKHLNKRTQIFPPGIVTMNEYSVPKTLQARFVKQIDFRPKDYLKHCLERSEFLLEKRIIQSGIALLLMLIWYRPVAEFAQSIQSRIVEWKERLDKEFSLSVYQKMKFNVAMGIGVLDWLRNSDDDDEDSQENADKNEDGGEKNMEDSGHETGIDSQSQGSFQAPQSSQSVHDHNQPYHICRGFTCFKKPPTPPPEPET

Nonstructural protein 1 = Nonstructural protein 1 (Influenza A virus, UniProt Q194T2); type: functional, Influenza A virus (A/California/07/2009(H1N1))
Sequence of Nonstructural protein 1 (Q194T2 whole entry): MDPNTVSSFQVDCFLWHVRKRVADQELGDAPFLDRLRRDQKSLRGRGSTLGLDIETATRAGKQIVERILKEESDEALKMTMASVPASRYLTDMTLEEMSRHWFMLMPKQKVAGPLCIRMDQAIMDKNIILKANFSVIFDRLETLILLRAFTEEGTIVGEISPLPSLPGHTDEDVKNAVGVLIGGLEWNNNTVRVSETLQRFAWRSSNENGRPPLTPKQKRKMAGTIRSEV

Protein S100-A4 = Protein S100-A4 (Homo sapiens, UniProt P26447); assay: S100A4-myosin IIA binding inhibitor potency, dose response, biochemical, fluorescence polarization, cherry-picked hits (AID 687001); type: functional
Sequence of Protein S100-A4 (P26447 whole entry): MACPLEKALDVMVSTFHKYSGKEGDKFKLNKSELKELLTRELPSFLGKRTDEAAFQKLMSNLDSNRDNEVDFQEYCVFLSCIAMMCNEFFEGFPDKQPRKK

[6] = molecular target: Bifunctional protein GlmU (Mycobacterium tuberculosis, UniProt P9WMN3); assay: Inhibitors of Mycobacterial Glucosamine-1-phosphate acetyl transferase (GlmU). Secondary screen.; design: species or system Mycobacterium tuberculosis H37Rv
Sequence of Bifunctional protein GlmU (P9WMN3 whole entry): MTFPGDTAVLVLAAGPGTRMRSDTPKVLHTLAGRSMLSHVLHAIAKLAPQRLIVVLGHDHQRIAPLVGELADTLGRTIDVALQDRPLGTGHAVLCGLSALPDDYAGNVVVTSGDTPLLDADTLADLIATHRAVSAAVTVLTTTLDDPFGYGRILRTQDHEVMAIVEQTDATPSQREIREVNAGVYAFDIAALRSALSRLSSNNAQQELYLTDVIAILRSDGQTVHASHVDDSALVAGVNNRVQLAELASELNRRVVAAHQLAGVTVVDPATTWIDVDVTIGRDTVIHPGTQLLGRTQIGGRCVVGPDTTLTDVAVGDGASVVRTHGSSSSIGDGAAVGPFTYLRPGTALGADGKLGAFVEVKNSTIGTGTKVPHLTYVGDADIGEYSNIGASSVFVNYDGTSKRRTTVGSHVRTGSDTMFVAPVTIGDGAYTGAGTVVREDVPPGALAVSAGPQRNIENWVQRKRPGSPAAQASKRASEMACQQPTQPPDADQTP

[7] = Dose-response inhibition of insulin secretion in a rat insulinoma line at 5 mM glucose (AID 1117331); type: functional, cell-based; details: INS-1E
HeLa = assay: HeLa cell cytotoxicity, dose response, cytotoxicity control, ATP luminescence, cherry-pick samples (AID 687004); type: functional, cell-based; details: Homo sapiens
[8] = P. falciparum Dd2 blood-stage growth inhibition, dose response, SYBR Green fluorescence, erythrocytes, dry powder, set 2 (AID 1159574); type: functional, cell-based
[9] = P. falciparum Dd2 growth inhibitors, dose response, SYBR Green, dry powder samples, set 4 (AID 1159572); type: functional, cell-based
[10] = HepG2 cell cytotoxicity, dose response, cytotoxicity control, cherry-picked samples (AID 1159577); type: functional, cell-based
[11] = P. falciparum Dd2 growth inhibitors, dose response, SYBR Green, cherry-picked samples (AID 1159567); type: functional, cell-based
Caspase-6 = Caspase-6 (Homo sapiens, UniProt P55212); assay: human caspase-6 inhibitors, dose response, biochemical, VEID-R110 fluorescence, cherry-pick (AID 720632)
Sequence of Caspase-6 (P55212 24-179 limits assumed): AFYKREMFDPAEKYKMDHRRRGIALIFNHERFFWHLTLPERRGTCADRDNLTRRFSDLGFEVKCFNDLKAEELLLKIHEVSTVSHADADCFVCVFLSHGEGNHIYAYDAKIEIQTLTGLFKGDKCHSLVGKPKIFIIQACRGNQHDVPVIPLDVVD
Sequence of Caspase-6 (P55212 194-293 limits assumed): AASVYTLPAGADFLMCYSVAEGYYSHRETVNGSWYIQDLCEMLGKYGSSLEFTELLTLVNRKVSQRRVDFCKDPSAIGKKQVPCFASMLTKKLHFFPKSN

Streptokinase A = molecular target: T1, Streptokinase A (Streptococcus pyogenes serotype M1, UniProt P10520); assay: S. pyogenes streptokinase expression inhibitors, potency, dose response, plasminogen activation absorbance, OD405 (AID 1914); type: functional, Streptococcus pyogenes M1 GAS;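 further: secreted streptokinase activity via plasminogen activation per viability signal from cell pellet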
T1 sequence (P10520 whole entry): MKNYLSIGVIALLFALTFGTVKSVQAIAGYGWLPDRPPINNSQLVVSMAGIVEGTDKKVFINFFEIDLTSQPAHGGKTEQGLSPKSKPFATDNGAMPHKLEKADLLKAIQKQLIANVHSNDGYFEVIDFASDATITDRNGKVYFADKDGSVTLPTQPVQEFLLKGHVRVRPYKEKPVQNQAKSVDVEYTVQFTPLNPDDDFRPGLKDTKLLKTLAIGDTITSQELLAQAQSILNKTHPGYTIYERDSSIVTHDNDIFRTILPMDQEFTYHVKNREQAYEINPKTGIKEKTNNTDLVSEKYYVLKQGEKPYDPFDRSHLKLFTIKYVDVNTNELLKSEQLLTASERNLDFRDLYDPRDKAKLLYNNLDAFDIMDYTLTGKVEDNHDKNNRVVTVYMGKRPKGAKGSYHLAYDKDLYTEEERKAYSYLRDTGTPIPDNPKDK

cells = type: functional
[12] = HeLa cell cytotoxicity, dose response, cytotoxicity control, CellTiter-Glo luminescence, dry powder, set 2 (AID 720593); type: functional, cell-based
[13] = THP-1 cell cytotoxicity, dose response, cytotoxicity control for non-replicating M. tuberculosis project (AID 489025); type: functional
[14] = tested on: Streptococcus sp. 'group A'; assay: growth inhibition of control SK(-) GAS strain, dose response, counter-screen for streptokinase expression inhibitor project, luminescence, kanamycin, BacTiterGlo, confirmation (AID 1900); type: functional, organism-based
Streptococcus = assay: Group A Streptococcus viability loss, dose response, counter-screen for streptokinase expression inhibitor project, luminescence, BacTiterGlo (AID 1915); type: functional, organism-based;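 further: potency for reduction of bacterial viability or growth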
[15] = Vero E6 cell cytotoxicity, dose response, cytotoxicity control for non-replicating M. tuberculosis project, secondary assay (AID 492998); type: functional, VeroE6; details: Vero C1008
[16] = HEK293T cell cytotoxicity, dose response, cytotoxicity control, CellTiter-Glo luminescence, dry powder, set 2 (AID 720595); type: functional, cell-based; details: HEK293
[17] = HepG2 cell cytotoxicity, dose response, cytotoxicity control for non-replicating M. tuberculosis project (AID 489018); type: functional; details: Mycobacterium tuberculosis
Vasopressin V2 receptor = Vasopressin V2 receptor (Homo sapiens, UniProt P30518); assay: Late-stage results from the probe development effort to identify antagonists of arginine vasopressin receptor 1a (AVPR1a): fluorescence-based cell-based dose response AVPR2 inhibition counterscreen assay.; type: functional
Sequence of Vasopressin V2 receptor (P30518 whole entry): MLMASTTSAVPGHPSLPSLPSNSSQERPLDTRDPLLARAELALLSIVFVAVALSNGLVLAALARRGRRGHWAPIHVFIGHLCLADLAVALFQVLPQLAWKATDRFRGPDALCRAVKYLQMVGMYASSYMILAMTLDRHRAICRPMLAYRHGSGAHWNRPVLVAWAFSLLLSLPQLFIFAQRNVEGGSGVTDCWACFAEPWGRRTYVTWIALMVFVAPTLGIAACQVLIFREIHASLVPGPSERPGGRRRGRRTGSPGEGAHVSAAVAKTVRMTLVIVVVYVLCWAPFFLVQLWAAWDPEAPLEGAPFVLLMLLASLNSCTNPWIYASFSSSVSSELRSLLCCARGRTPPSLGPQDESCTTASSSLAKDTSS

[18] = Late-stage results from the probe development effort to identify antagonists of arginine vasopressin receptor 1a (AVPR1a): fluorescence-based cell-based dose response AVPR1a inhibition assay.; type: functional
[19] = Late-stage results from the probe development effort to identify antagonists of arginine vasopressin receptor 1a (AVPR1a): fluorescence-based cell-based dose response OXTR inhibition counterscreen assay.; type: functional
Vasopressin V1b receptor = Vasopressin V1b receptor (Homo sapiens, UniProt P47901); assay: Late-stage results from the probe development effort to identify antagonists of arginine vasopressin receptor 1a (AVPR1a): fluorescence-based cell-based dose response AVPR1b inhibition counterscreen assay.; type: functional
Sequence of Vasopressin V1b receptor (P47901 whole entry): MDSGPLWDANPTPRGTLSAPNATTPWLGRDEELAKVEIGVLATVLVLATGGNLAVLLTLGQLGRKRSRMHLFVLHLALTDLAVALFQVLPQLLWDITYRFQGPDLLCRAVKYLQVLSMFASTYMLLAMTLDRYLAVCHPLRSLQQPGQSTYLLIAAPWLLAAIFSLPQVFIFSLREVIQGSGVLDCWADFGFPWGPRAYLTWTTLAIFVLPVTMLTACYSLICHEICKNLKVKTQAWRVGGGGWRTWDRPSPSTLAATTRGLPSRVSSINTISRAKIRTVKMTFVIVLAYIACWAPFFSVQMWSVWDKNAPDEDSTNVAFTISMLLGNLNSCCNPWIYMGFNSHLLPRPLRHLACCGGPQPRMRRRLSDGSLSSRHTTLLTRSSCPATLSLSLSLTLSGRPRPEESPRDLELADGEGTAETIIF

For `O=C(Nc1ccccc1F)N1CCCCN2[C@H](C1)[C@@H](c1ccc(/C=C/c3ccccc3)cc1)[C@@H]2CO`, which AC50 [1] is on record?
Its AC50 is 7.14 µM (active).

For `CCCCn1c(NCc2ccccc2NS(=O)(=O)c2ccc(C)cc2)nc2ccccc21`, which EC50 [2] is on record?
The EC50 was 2.21 µM (active).

What about the CC50 [3] of the same molecule?
The CC50 was > 40 µM (active).

And the EC50 [4]?
Its EC50 is > 60 µM (not active).

With `CCn1c(=O)cc(N2CCC3(CC2)OCCO3)[nH]c1=O` as the molecule, how does the IC50 [5] read?
The IC50 was > 100 µM (active).

Which IC50 (Large T antigen) does the source give for `O=C1NC(=O)N(c2ccccc2F)C(=O)/C1=C/c1ccc(Sc2nc3ccccc3[nH]2)o1` here?
Its IC50 is 19.5 µM (active).

And the IC50 (Nonstructural protein 1)?
The IC50 was > 100 µM (active).

And the AC50 (Protein S100-A4)?
The AC50 was 1.28 µM (active).

And the IC50 [6]?
Its IC50 is 219 µM (active).

Which IC50 [7] does the source give for `CCCN1CCCC[C@H]1C(=O)Nc1c(C)cccc1C` [ROPIVACAINE HYDROCHLORIDE] here?
The IC50 was > 33.3 µM (inactive).

What about the AC50 (HeLa) of the same molecule?
The AC50 was > 52 µM (inactive).

With `COc1ccc(S(=O)(=O)N(C)C[C@@H]2OCc3ccccc3-c3c(n(C)c4ccccc34)C(=O)N([C@H](C)CO)C[C@@H]2C)cc1` as the molecule, how does the AC50 [8] read?
Its AC50 is 6.36 µM (active).

Which AC50 [9] does the source give for `COc1ccc2c3c([nH]c2c1)[C@H](CO)N(C(C)=O)CC31CCN(C(=O)Nc2ccc(F)cc2)CC1` here?
Its AC50 is 834 nM (active).

With `C/C=C/c1ccc([C@@H]2[C@@H]3CN(Cc4cccc(F)c4)C[C@H]2N3)cc1` as the molecule, how does the AC50 [10] read?
Its AC50 is 9.58 µM (active).

And the AC50 [11]?
The AC50 was 4.24 µM (active).

With `O=C(O)c1cc(S(=O)(=O)Nc2ccc3c[nH]nc3c2)ccc1O` as the molecule, how does the AC50 (Caspase-6) read?
The AC50 was 11.3 µM (active).

With `O=C(Nc1nc(-c2ccccn2)cs1)c1ccco1` as the molecule, how does the EC50 (Streptokinase A) read?
Its EC50 is > 150 µM (not active).

What about the IC50 (cells) of the same molecule?
Its IC50 is 1.68 µM (active).

What about the AC50 [12] of the same molecule?
Its AC50 is > 52 µM (inactive).

And the CC50 [13]?
Its CC50 is 6.1 µM (active).

And the IC50 (Nonstructural protein 1)?
The IC50 was 7.12 µM (active).

What about the EC50 [14] of the same molecule?
The EC50 was 10.8 µM (active).

What about the EC50 (Streptococcus) of the same molecule?
The EC50 was > 150 µM (not active).

What about the CC50 [15] of the same molecule?
The CC50 was 11.3 µM (active).

What about the AC50 [16] of the same molecule?
The AC50 was 7.58 µM (active).

And the CC50 [17]?
Its CC50 is > 20 µM (active).

Which results are given for `Cc1ccccc1N1CCN(c2nc3ccccc3n2CC2CC2)CC1`?
IC50 (Vasopressin V2 receptor): 19.4 µM (inactive); IC50 [18]: 7.54 µM (active); IC50 [19]: 19.4 µM (inactive); IC50 (Vasopressin V1b receptor): 15.5 µM (inactive)
